# Experimental data reported in BindingDB's records for doi:10.7270/Q2JQ0ZH4 (Burnham Center For Chemical Genomics, 2011).
# Target: T1, Mitochondrial import inner membrane translocase subunit TIM10 (Saccharomyces cerevisiae (strain ATCC 204508 / S288c), UniProt P87108)
# T1 sequence (P87108 whole entry): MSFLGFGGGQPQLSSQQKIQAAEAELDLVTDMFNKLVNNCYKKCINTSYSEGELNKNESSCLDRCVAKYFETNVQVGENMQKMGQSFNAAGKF
# Assay: inhibitors in tim10-1 mutant yeast luminescence, dose response, counter-screen for tim23-1 inhibitor project, S. cerevisiae, uHTS hits (AID 504657)
row,IC50,SMILES
1,> 100 µM,O=C1c2ccccc2-c2n[nH]c3cccc1c23
2,> 100 µM,Cc1ccc2nc(-n3c(O)c[nH]c3=S)sc2c1
3,> 100 µM,COC(=N)C(C#N)N=Cc1ccccc1Cl (stereo not given) [(E)-3-amino-2-[(2-chlorophenyl)methylideneamino]-3-methoxy-2-propenenitrile]
4,> 100 µM,C(=CN=Nc1nc2ccccc2[nH]1)Cc1ccccc1 [MLS000390936]
5,> 100 µM,Oc1ccccc1C1=NNC(c2ccccc2)S1 (stereo not given) [MLS001212798]
